For one experiment, the system named is Hepatitis C virus. Kind of experiment: Antiviral activity against HCV infected in human Huh-7.5.1 cells assessed as reduction in viral infection incubated for 48 hrs. Type of experiment: functional, organism-based, Hepacivirus hominis. Conditions: Huh-7.5.1, 48 h.
In the next experiment the test system is Poliovirus 1. Kind of experiment: Antiviral activity against human poliovirus 1 infected in human MRC5 cells incubated for 1 hr by crystal violet staining based plaque assay. Type of experiment: functional, organism-based. The note with it: Enterovirus C, MRC5, 1 h.
Experiment [1] concerns Middle East respiratory syndrome-related coronavirus. The experiment is described as follows: Antiviral activity against MERS-COV infected in human MRC5 cells incubated for 1 hr by crystal violet staining based plaque assay. The class given is functional, organism-based.
In another experiment the test system is Human coronavirus 229E. The experiment is described as follows: Antiviral activity against hCoV-229E infected in human MRC5 cells incubated for 1 hr by crystal violet staining based plaque assay. Type of experiment: functional, organism-based.
A further experiment deals with SARS-CoV-2. The experiment is described as follows: Antiviral activity against SARS-CoV-2 USA_WA1/2020 infected in African green monkey Vero E6 cells assessed as reduction in virus replication preincubated with cell for 2 hrs followed by viral infection for 1 hr and measured after 48 hrs by RT-qPCR method. The class given is functional. The note with it: Severe acute respiratory syndrome coronavirus 2, USA_WA1/2020, Vero C1008; time 51 hrs. (In general: Real-time PCR tracks product formation cycle by cycle.)

For the compound `COc1ccc([C@@]23Oc4cc(OC)cc(OC)c4[C@]2(O)c2nc4n(c(=O)c2[C@H]3c2ccccc2)CCC4)cc1`, in the experiment with Hepatitis C virus, the half-maximal effective concentration (EC50) (in general, the midpoint of the concentration-response curve) was 0.04 nM.
Consider `COc1ccc([C@@]23Oc4cc(OC)cc(OC)c4[C@]2(O)[C@H](O)[C@H](C(=O)N(C)C)[C@H]3c2ccccc2)cc1` [ROCAGLAMIDE], for which, in the experiment with Hepatitis C virus, the EC50 came to 4 nM.
For `COC(=O)[C@H]1[C@@H](O)[C@@]2(O)c3c(OC)cc(O[C@@H]4O[C@@H]([C@H](O)CO)CO[C@H]4OC)cc3O[C@@]2(c2ccc(OC)cc2)[C@@H]1c1ccccc1` [SILVESTROL], the EC50 in the experiment on Poliovirus 1 stood at 20 nM; in experiment [1] (MRC5, 1 h), 1.3 nM; with Human coronavirus 229E (MRC5, 1 h), 3 nM. Besides, the concentration for an effect of 90% (EC90) (in general, the concentration needed for an effect of 90%) in experiment [1] (MRC5, time 1 hrs) came to 27 nM; with Human coronavirus 229E (MRC5, time 1 hrs), 12 nM.
On to `COc1cc2c(c(OC)n1)[C@]1(O)[C@H](O)[C@H](CN(C)C)[C@@H](c3ccccc3)[C@]1(c1ccc(C#N)cc1)O2` [ZOTATIFIN], for which, in the experiment with SARS-CoV-2, the concentration for an effect of 90% (IC90) (commonly the concentration needed for an effect of 90%) is 37 nM.

(Values after ChEMBL document CHEMBL5233256, “Flavaglines as natural products targeting eIF4A and prohibitins: From traditional Chinese medicine to antiviral activity against coronaviruses” (Eur J Med Chem, 2020).)
